The compounds below were run against Recombinant human CYP51A1 (lanosterol-14a-demethylase) (Homo sapiens (Human), UniProt Q16850) (assay: Inhibition of CYP51A1, fluorescent substrate BOMCC). Conditions: recombinant human CYP51A1 coexpressed with CYP reductase in bacterial membranes, 8-point concentration-response, read-out: CYP51 IC50.
Assay type: biochemical
Text: Method: Recombinant human CYP51A1 (lanosterol-14a-demethylase) enzyme was coexpressed with CYP reductase in bacterial membranes and the fluorescent substrate BOMCC (a nonnatural substrate that causes increases in fluorescence upon CYP51A1-dependent demethylation) was used to obtain 8-point dose concentration-response curves for each compound.

Chain of Recombinant human CYP51A1 (lanosterol-14a-demethylase) (Q16850 whole entry): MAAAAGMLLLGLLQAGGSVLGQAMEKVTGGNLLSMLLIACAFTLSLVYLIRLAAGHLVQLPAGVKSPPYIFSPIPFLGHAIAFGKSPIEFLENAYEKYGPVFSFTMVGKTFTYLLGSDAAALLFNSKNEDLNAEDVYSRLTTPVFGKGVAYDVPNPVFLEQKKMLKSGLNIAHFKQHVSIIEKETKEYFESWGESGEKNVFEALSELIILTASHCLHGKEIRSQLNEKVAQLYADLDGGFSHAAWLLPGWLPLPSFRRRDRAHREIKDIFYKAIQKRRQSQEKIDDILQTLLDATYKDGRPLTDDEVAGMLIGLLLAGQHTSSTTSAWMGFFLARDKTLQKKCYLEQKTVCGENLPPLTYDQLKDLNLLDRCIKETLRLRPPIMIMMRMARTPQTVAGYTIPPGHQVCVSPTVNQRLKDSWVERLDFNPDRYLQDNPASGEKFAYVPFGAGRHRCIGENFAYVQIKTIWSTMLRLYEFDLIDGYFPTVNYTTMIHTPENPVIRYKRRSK

SMILES	IC50 [µM]
CCCN(CC(O)c1cccnn1)C(=O)Cc1ccc(C(F)(F)F)nc1 (stereo not drawn) [compound 32, N-(2-hydroxy-2-pyridazin-3-yl-ethyl)-N-propyl-2-[6-(trifluoromethyl)-3-pyridyl]acetamide]	0.1 to 1
NCCCCCN(CC(O)c1cccnc1)C(=O)Cc1ccc(Cl)c(Cl)c1 (stereo not drawn) [compound 33, N-(5-aminopentyl)-2-(3,4-dichlorophenyl)-N-[2-hydroxy-2-(3-pyridyl)ethyl]acet amide]	> 1
CCC(=O)N(CC1Cc2cc(Cl)c(Cl)cc2C1)C[C@@H](O)c1cccnc1 [compound 34, N-[(5,6-dichloroindan-2-yl)methyl]-N-[(2S)-2-hydroxy-2-(3-pyridyl)ethyl]propanamide]	0.1 to 1
CCCN(CC(O)c1cncc(Cl)c1)C(=O)Cc1ccc(Cl)c(Cl)c1 (stereo not drawn) [compound 37, N-[2-(5-chloro-3-pyridyl)-2-hydroxy-ethyl]-2-(3,4-dichlorophenyl)-N-propyl-acetamide]	> 1
CCCN(C[C@@H](O)c1cccnc1)C(=O)Cc1ccc(C(F)(F)F)nn1 [compound 38, N-[(2S)-2-hydroxy-2-(3-pyridyl)ethyl]-N-propyl-2-[6-(trifluoromethyl)pyridazin-3-yl]acetamide]	0.1 to 1
CCCN(C[C@@H](O)c1cccnc1)C(=O)Cc1ccc(C#N)nc1 [compound 39, 2-(6-cyano-3-pyridyl)-N-[(2S)-2-hydroxy-2-(3-pyridyl)ethyl]-N-propyl-acetamide]	> 1
CCCN(C[C@@H](O)c1cccnc1)C(=O)Cc1ccc2ncsc2c1 [compound 40, 2-(1,3-benzothiazol-6-yl)-N-[(2S)-2-hydroxy-2-(3-pyridyl)ethyl]-N-propyl-acetamide]	0.1 to 1
CC(C)(O)CN(CC(O)c1cccnc1)C(=O)Cc1ccc(Cl)c(Cl)c1 (stereo not drawn) [compound 43, 2-(3,4-dichlorophenyl)-N-(2-hydroxy-2-methylpropyl)-N-[2-hydroxy-2-(3-pyridyl)ethyl]acetamide]	> 1
CCCN(C[C@@H](O)c1cccnc1)C(=O)Cc1cncc(Cl)c1 [compound 44, 2-(5-chloro-3-pyridyl)-N-[(2S)-2-hydroxy-2-(3-pyridyl)ethyl]-N-propyl-acetamide]	> 1
CCCN(C[C@@H](O)c1cccnc1)C(=O)Cc1ccc(OC(F)(F)F)cn1 [compound 45, N-[(2S)-2-hydroxy-2-(3-pyridyl)ethyl]-N-propyl-2-[5-(trifluoromethoxy)-2-pyridyl]acetamide]	≤ 0.1
CCCN(C[C@@H](O)c1cccnc1)C(=O)Cc1ccc2scnc2c1 [compound 47, 2-(1,3-benzothiazol-5-yl)-N-[(2S)-2-hydroxy-2-(3-pyridyl)ethyl]-N-propyl-acetamide]	0.1 to 1
CCCN(CC(O)c1cncc(C(C)=O)c1)C(=O)Cc1ccc(C(F)(F)F)nc1 (stereo not drawn) [compound 48, N-[2-(5-acetyl-3-pyridyl)-2-hydroxy-ethyl]-N-propyl-2-[6-(trifluoromethyl)-3-pyridyl]acetamide]	> 1
CCC(=O)N(CCc1ccc(C(F)(F)F)nc1)CC(O)c1cccnn1 (stereo not drawn) [compound 49]	> 1
CCCN(C[C@@H](O)c1cccnc1)C(=O)Cc1ccc(C(F)F)c(F)c1 [compound 50, 2-[4-(difluoromethyl)-3-fluoro-phenyl]-N-[(2S)-2-hydroxy-2-(3-pyridyl)ethyl]-N-propyl-acetamide]	≤ 0.1
COC(=O)N(CCc1ccc(C(F)(F)F)nc1)CC(O)c1cccnn1 (stereo not drawn) [compound 51]	> 1
CCCN(CC(O)c1cccnn1)C(=O)Cc1ccc(C#N)c(Cl)c1 (stereo not drawn) [compound 52, 2-(3-chloro-4-cyanophenyl)-N-(2-hydroxy-2-pyridazin-3-yl-ethyl)-N-propyl-acetamide]	0.1 to 1
CCCN(CC(O)c1cncc(C(C)(C)O)c1)C(=O)Cc1ccc(C(F)(F)F)nc1 (stereo not drawn) [compound 55, N-[2-hydroxy-2-[5-(1-hydroxy-1-methyl-ethyl)-3-pyridyl]ethyl]-N-propyl-2-[6-(trifluoromethyl)-3-pyridyl]acetamide]	> 1
O=C(Cc1ccc(C(F)(F)F)nc1)N(CC(O)c1cccnn1)C1CCC1 (stereo not drawn) [compound 60, N-cyclobutyl-N-(2-hydroxy-2-pyridazin-3-yl-ethyl)-2-[6-(trifluoromethyl)-3-pyridyl]acetamide]	0.1 to 1
CCCN(CC(O)c1cccnc1)C(=O)Cc1ccc(Cl)c(C)n1 (stereo not drawn) [compound 63, 2-(5-chloro-6-methyl-2-pyridyl)-N-[2-hydroxy-2-(3-pyridyl)ethyl]-N-propyl-acetamide]	> 1
O=C(Cc1ccc(F)c(Cl)c1)N(CC1COC1)C[C@@H](O)c1cccnc1 [compound 65, 2-(3-chloro-4-fluoro-phenyl)-N-[(2S)-2-hydroxy-2-(3-pyridyl)ethyl]-N-(oxetan-3-ylmethyl)acetamide]	> 1
O=C(Cc1ccc(OC(F)(F)F)cn1)N(CC1COC1)C[C@@H](O)c1cccnc1 [compound 66, N-[(2S)-2-hydroxy-2-(3-pyridyl)ethyl]-N-(oxetan-3-ylmethyl)-2-[5-(trifluoromethoxy)-2-pyridyl]acetamide]	0.1 to 1
CCCN(C[C@@H](O)c1cccnc1)C(=O)Cc1ccc2cc(Cl)sc2c1 [compound 67, 2-(2-chlorobenzothiophen-6-yl)-N-[(2S)-2-hydroxy-2-(3-pyridyl)ethyl]-N-propyl-acetamide]	≤ 0.1
O=C(Cc1ccc(Cl)c(Cl)c1)N(C[C@@H](O)c1cccnc1)C1CCC1 [compound 71, N-cyclobutyl-2-(3,4-dichlorophenyl)-N-[(2S)-2-hydroxy-2-(3-pyridyl)ethyl]acetamide]	≤ 0.1
N#Cc1ccc(CC(=O)N(C[C@@H](O)c2cccnc2)C2CCC2)cc1Cl [compound 77, 2-(3-chloro-4-cyano-phenyl)-N-cyclobutyl-N-[(2S)-2-hydroxy-2-(3-pyridyl)ethyl]acetamide]	≤ 0.1
N#Cc1ccc(CC(=O)N(CC2COC2)C[C@@H](O)c2cccnc2)cc1Cl [compound 80, 2-(3-chloro-4-cyano-phenyl)-N-[(2S)-2-hydroxy-2-(3-pyridyl)ethyl]-N-(oxetan-3-ylmethyl)acetamide]	0.1 to 1
COC(=O)N(CCc1ccc2ccccc2c1)CC(O)c1cccnc1 (stereo not drawn) [compound 82, Methyl N-[2-hydroxy-2-(3-pyridyl)ethyl]-N-[2-(2-naphthyl)ethyl]carba mate]	0.1 to 1

More lines, now with the values ahead:

IC50 [µM]	SMILES
> 1	CCCN(CC(O)c1cncc(Br)c1)C(=O)Cc1ccc(C(F)(F)F)nc1 (stereo not drawn) [compound 46, N-[2-(5-bromo-3-pyridyl)-2-hydroxyethyl]-N-propyl-2-[6-(trifluoromethyl)-3-pyridyl]acetamide]
> 1	CC(=O)N1CCC(CN(C[C@@H](O)c2cccnc2)C(=O)Cc2ccc(C(F)(F)F)nc2)CC1 [compound 57, N-[(1-acetyl-4-piperidyl)methyl]-N-[(2S)-2-hydroxy-2-(3-pyridyl)ethyl]-2-[6-(trifluoromethyl)-3-pyridyl]acetamide]
> 1	CN1CCC(CN(C[C@@H](O)c2cccnc2)C(=O)Cc2ccc(C(F)(F)F)nc2)CC1 [compound 58, N-[(2S)-2-hydroxy-2-(3-pyridyl)ethyl]-N-[(1-methyl-4-piperidyl)methyl]-2-[6-(trifluoromethyl)-3-pyridyl]acetamide]
> 1	CCCN(C[C@@H](O)c1cccnc1)C(=O)Cc1cncc(C(F)(F)F)c1 [compound 59, N-[(2S)-2-hydroxy-2-(3-pyridyl)ethyl]-N-propyl-2-[5-(trifluoromethyl)-3-pyridyl]acetamide]
≤ 0.1	O=C(Cc1ccc(C(F)(F)F)nc1)N(Cc1ccccc1)C[C@@H](O)c1cccnc1 [compound 64, (S)-N-benzyl-N-(2-hydroxy-2-(pyridin-3-yl)ethyl)-2-(6-(trifluoromethyl)pyridin-3-yl)acetamide]
0.1 to 1	CC(C)N(C[C@@H](O)c1cccnc1)C(=O)Cc1ccc(C(F)(F)F)nc1 [compound 72, (S)-N-(2-hydroxy-2-(pyridin-3-yl)ethyl)-N-isopropyl-2-(6-(trifluoromethyl)pyridin-3-yl)acetamide]
0.1 to 1	O=C(Cc1ccc(C(F)(F)F)nc1)N(CC1COC1)C[C@@H](O)c1cccnc1 [compound 73, N-[(2S)-2-hydroxy-2-(3-pyridyl)ethyl]-N-(oxetan-3-ylmethyl)-2-[6-(trifluoromethyl)-3-pyridyl]acetamide]
≤ 0.1	O=C(Cc1ccc(C(F)(F)F)nc1)N(C[C@@H](O)c1cccnc1)C1CCC1 [compound 74, N-cyclobutyl-N-[(2S)-2-hydroxy-2-(3-pyridyl)ethyl]-2-[6-(trifluoromethyl)-3-pyridyl]acetamide]
> 1	COC(=O)N(CCc1ccc(C(F)(F)F)nc1)C[C@@H](O)c1cccnc1 [compound 75, Methyl N-[(2S)-2-hydroxy-2-(3-pyridyl)ethyl]-N-[2-[6-(trifluoromethyl)-3-pyridyl]ethyl]carba mate]
≤ 0.1	CC1(CN(C[C@@H](O)c2cccnc2)C(=O)Cc2ccc(C(F)(F)F)nc2)CC1 [compound 76, N-[(2S)-2-hydroxy-2-(3-pyridyl)ethyl]-N-[(1-methylcyclopropyl)methyl]-2-[6-(trifluoromethyl)-3-pyridyl]acetamide]
0.1 to 1	O=C(Cc1ccc(C(F)(F)F)nc1)N(C[C@@H](O)c1cccnc1)C1COC1 [compound 78, N-[(2S)-2-hydroxy-2-(3-pyridyl)ethyl]-N-(oxetan-3-yl)-2-[6-(trifluoromethyl)-3-pyridyl]acetamide]
> 1	O=C(Cc1ccc(C(F)(F)F)nc1)N(CC1CCOCC1)C[C@@H](O)c1cccnc1 [compound 79, N-[(2S)-2-hydroxy-2-(3-pyridyl)ethyl]-N-(tetrahydropyran-4-ylmethyl)-2-[6-(trifluoromethyl)-3-pyridyl]acetamide]
> 1	O=C(Cc1ccc(C(F)(F)F)nc1)N(CC1CCNCC1)C[C@@H](O)c1cccnc1 [compound 81, N-[(2S)-2-hydroxy-2-(3-pyridyl)ethyl]-N-(4-piperidylmethyl)-2-[6-(trifluoromethyl)-3-pyridyl]acetamide]

Reference: patent publication US20230339890A1, “AMINO ALCOHOL COMPOUNDS AND USES THEREOF” (Kineta, Inc., priority 2020, published 2023)
